Legend:
Assay type in all cases: in vivo
[1] = tested on: buckwheat, wild (wild buckwheat, Polygonum convolvulus); experiment: Test C postemergence, plant response rating; details: for Buckwheat, Wild plant response rating: scale 0 to 100 (0 no effect, 100 complete control)
Outline: (§1)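 Visual injury score, 0 = no effect, 100 = complete control, assigned against untreated controls after 13 to 15 d in the greenhouse. Compounds were applied in a surfactant-containing non-phytotoxic solvent mix, preemergence to seeded loam/sand or silt loam soil, or postemergence to 1- to 4-leaf plants (2 to 18 cm).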

[2] = tested on: geranium, cutleaf (cutleaf geranium, Geranium dissectum); experiment: Test C postemergence, plant response rating; details: for Geranium, Cutleaf plant response rating: scale 0 to 100 (0 no effect, 100 complete control)
Outline: as §1

[3] = tested on: field poppy (Papaver rhoeas); experiment: Test C postemergence, plant response rating; details: for Field Poppy plant response rating: scale 0 to 100 (0 no effect, 100 complete control)
Outline: as §1

[4] = tested on: speedwell (bird's-eye speedwell, Veronica persica); experiment: Test C postemergence, plant response rating; details: for Speedwell plant response rating: scale 0 to 100 (0 no effect, 100 complete control)
Outline: as §1

[5] = tested on: johnsongrass (Sorghum halepense); experiment: Test C postemergence, plant response rating; details: for Johnsongrass plant response rating: scale 0 to 100 (0 no effect, 100 complete control)
Outline: as §1

[6] = tested on: wild poinsettia (Euphorbia heterophylla); experiment: Test C postemergence, plant response rating; details: for Poinsettia, Wild plant response rating: scale 0 to 100 (0 no effect, 100 complete control)
Outline: as §1

[7] = tested on: nightshade (eastern black nightshade, Solanum ptycanthum); experiment: Test C postemergence, plant response rating; details: for Nightshade plant response rating: scale 0 to 100 (0 no effect, 100 complete control)
Outline: as §1

[8] = tested on: wild mustard (Sinapis arvensis); experiment: Test C postemergence, plant response rating; details: for Mustard, Wild plant response rating: scale 0 to 100 (0 no effect, 100 complete control)
Outline: as §1

[9] = tested on: field violet (Viola arvensis); experiment: Test C postemergence, plant response rating; details: for Field Violet plant response rating: scale 0 to 100 (0 no effect, 100 complete control)
Outline: as §1

[10] = tested on: Canada thistle (Cirsium arvense); experiment: Test C postemergence, plant response rating; details: for Canada Thistle plant response rating: scale 0 to 100 (0 no effect, 100 complete control)
Outline: as §1

[11] = tested on: surinam grass (Brachiaria decumbens); experiment: Test C postemergence, plant response rating; details: for Surinam Grass plant response rating: 125 g ai/ha, scale 0 to 100 (0 no effect, 100 complete control)
Outline: as §1

[12] = tested on: pigweed, palmer (palmer pigweed, Amaranthus palmeri); experiment: Test C postemergence, plant response rating; details: for Pigweed, Palmer plant response rating: scale 0 to 100 (0 no effect, 100 complete control)
Outline: as §1

[13] = tested on: windgrass (Apera spica-venti); experiment: Test C postemergence, plant response rating; details: for Windgrass plant response rating: 125 g ai/ha, scale 0 to 100 (0 no effect, 100 complete control)
Outline: as §1

[14] = tested on: nightshade (eastern black nightshade, Solanum ptycanthum); experiment: Test C preemergence, plant response rating

N#Cc1cccc(Oc2ncc(Cl)cn2)c1COCCC(F)(F)F [Compound 80]
70: Plant response rating, Buckwheat, Wild ([1]; 16 g ai/ha, scale of 0 to 100) | Plant response rating, Buckwheat, Wild ([1]; 31 g ai/ha, scale 0 to 100) | Plant response rating, Field Poppy ([3]; 16 g ai/ha, scale of 0 to 100) | Poinsettia, Wild plant response rating ([6]; 62 g ai/ha) | Nightshade plant response rating ([7]; 62 g ai/ha) | Pigweed, Palmer plant response rating ([12]; 62 g ai/ha) | Plant response rating, Nightshade ([14]; 31 g ai/ha, scale 0 to 100)
30: Plant response rating, Geranium, Cutleaf ([2]; 16 g ai/ha, scale of 0 to 100) | Plant response rating, Pigweed, Palmer ([12]; 16 g ai/ha, scale of 0 to 100) | Windgrass plant response rating [13]
85: Field Poppy plant response rating ([3]; 62 g ai/ha) | Field Poppy plant response rating ([3]; 125 g ai/ha) | Plant response rating, Field Violet ([9]; 31 g ai/ha, scale 0 to 100) | Canada Thistle plant response rating ([10]; 125 g ai/ha) | Plant response rating, Nightshade ([14]; 62 g ai/ha, scale 0 to 100)
60: Geranium, Cutleaf plant response rating ([2]; 125 g ai/ha) | Plant response rating, Nightshade ([7]; 16 g ai/ha, scale of 0 to 100) | Pigweed, Palmer plant response rating ([12]; 125 g ai/ha)
95: Buckwheat, Wild plant response rating ([1]; 125 g ai/ha) | Field Violet plant response rating ([9]; 125 g ai/ha)
65: Plant response rating, Poinsettia, Wild ([6]; 16 g ai/ha, scale of 0 to 100) | Plant response rating, Poinsettia, Wild ([6]; 31 g ai/ha, scale 0 to 100) | Plant response rating, Nightshade ([7]; 31 g ai/ha, scale 0 to 100)
5: Plant response rating, Johnsongrass ([5]; 16 g ai/ha, scale of 0 to 100) | Plant response rating, Johnsongrass ([5]; 31 g ai/ha, scale 0 to 100) | Johnsongrass plant response rating ([5]; 62 g ai/ha) | Johnsongrass plant response rating ([5]; 125 g ai/ha) | Plant response rating, Windgrass ([13]; 31 g ai/ha, scale 0 to 100)
0: Plant response rating, Windgrass ([13]; 16 g ai/ha, scale of 0 to 100)
25: Surinam Grass plant response rating [11]
80: Plant response rating, Mustard, Wild ([8]; 31 g ai/ha, scale 0 to 100) | Mustard, Wild plant response rating ([8]; 62 g ai/ha)
90: Plant response rating, Speedwell ([4]; 16 g ai/ha, scale of 0 to 100) | Mustard, Wild plant response rating ([8]; 125 g ai/ha) | Field Violet plant response rating ([9]; 62 g ai/ha) | Plant response rating, Nightshade ([14]; 125 g ai/ha, scale of 0 to 100)
100: Plant response rating, Speedwell ([4]; 31 g ai/ha, scale 0 to 100) | Speedwell plant response rating ([4]; 62 g ai/ha) | Speedwell plant response rating ([4]; 125 g ai/ha)
35: Plant response rating, Geranium, Cutleaf ([2]; 31 g ai/ha, scale 0 to 100) | Geranium, Cutleaf plant response rating ([2]; 62 g ai/ha) | Plant response rating, Pigweed, Palmer ([12]; 31 g ai/ha, scale 0 to 100)
10: Plant response rating, Surinam Grass ([11]; 16 g ai/ha, scale of 0 to 100) | Plant response rating, Surinam Grass ([11]; 31 g ai/ha, scale 0 to 100)
75: Buckwheat, Wild plant response rating ([1]; 62 g ai/ha) | Plant response rating, Field Poppy ([3]; 31 g ai/ha, scale 0 to 100) | Poinsettia, Wild plant response rating ([6]; 125 g ai/ha) | Nightshade plant response rating ([7]; 125 g ai/ha) | Plant response rating, Mustard, Wild ([8]; 16 g ai/ha, scale of 0 to 100) | Plant response rating, Field Violet ([9]; 16 g ai/ha, scale of 0 to 100) | Plant response rating, Canada Thistle ([10]; 16 g ai/ha, scale of 0 to 100) | Plant response rating, Canada Thistle ([10]; 31 g ai/ha, scale 0 to 100) | Canada Thistle plant response rating ([10]; 62 g ai/ha)

O=C(CCCCC(F)(F)F)c1c(Br)cccc1Oc1ncc(Cl)cn1 [Compound 82]
70: Plant response rating, Buckwheat, Wild ([1]; 31 g ai/ha, scale 0 to 100) | Plant response rating, Field Violet ([9]; 31 g ai/ha, scale 0 to 100)
65: Plant response rating, Poinsettia, Wild ([6]; 31 g ai/ha, scale 0 to 100)
85: Plant response rating, Field Poppy ([3]; 31 g ai/ha, scale 0 to 100) | Plant response rating, Speedwell ([4]; 31 g ai/ha, scale 0 to 100) | Poinsettia, Wild plant response rating ([6]; 62 g ai/ha) | Plant response rating, Nightshade ([7]; 16 g ai/ha, scale of 0 to 100) | Plant response rating, Canada Thistle ([10]; 16 g ai/ha, scale of 0 to 100) | Plant response rating, Canada Thistle ([10]; 31 g ai/ha, scale 0 to 100) | Canada Thistle plant response rating ([10]; 62 g ai/ha) | Plant response rating, Nightshade ([14]; 125 g ai/ha, scale of 0 to 100)
5: Plant response rating, Johnsongrass ([5]; 16 g ai/ha, scale of 0 to 100)
20: Plant response rating, Johnsongrass ([5]; 31 g ai/ha, scale 0 to 100) | Plant response rating, Surinam Grass ([11]; 16 g ai/ha, scale of 0 to 100) | Plant response rating, Surinam Grass ([11]; 31 g ai/ha, scale 0 to 100) | Plant response rating, Nightshade ([14]; 31 g ai/ha, scale 0 to 100)
100: Buckwheat, Wild plant response rating ([1]; 62 g ai/ha) | Buckwheat, Wild plant response rating ([1]; 125 g ai/ha) | Field Poppy plant response rating ([3]; 62 g ai/ha) | Field Poppy plant response rating ([3]; 125 g ai/ha) | Nightshade plant response rating ([7]; 125 g ai/ha) | Mustard, Wild plant response rating ([8]; 62 g ai/ha) | Mustard, Wild plant response rating ([8]; 125 g ai/ha)
40: Geranium, Cutleaf plant response rating ([2]; 62 g ai/ha) | Plant response rating, Poinsettia, Wild ([6]; 16 g ai/ha, scale of 0 to 100) | Plant response rating, Nightshade ([14]; 62 g ai/ha, scale 0 to 100)
95: Speedwell plant response rating ([4]; 62 g ai/ha) | Speedwell plant response rating ([4]; 125 g ai/ha) | Nightshade plant response rating ([7]; 62 g ai/ha) | Plant response rating, Mustard, Wild ([8]; 16 g ai/ha, scale of 0 to 100) | Plant response rating, Mustard, Wild ([8]; 31 g ai/ha, scale 0 to 100)
60: Geranium, Cutleaf plant response rating ([2]; 125 g ai/ha) | Plant response rating, Field Violet ([9]; 16 g ai/ha, scale of 0 to 100)
50: Plant response rating, Field Poppy ([3]; 16 g ai/ha, scale of 0 to 100)
30: Plant response rating, Geranium, Cutleaf ([2]; 16 g ai/ha, scale of 0 to 100) | Plant response rating, Geranium, Cutleaf ([2]; 31 g ai/ha, scale 0 to 100) | Johnsongrass plant response rating ([5]; 125 g ai/ha)
10: Johnsongrass plant response rating ([5]; 62 g ai/ha) | Plant response rating, Windgrass ([13]; 16 g ai/ha, scale of 0 to 100)
25: Surinam Grass plant response rating [11]
35: Plant response rating, Windgrass ([13]; 31 g ai/ha, scale 0 to 100) | Windgrass plant response rating [13]
90: Field Violet plant response rating ([9]; 62 g ai/ha) | Field Violet plant response rating ([9]; 125 g ai/ha)
98: Canada Thistle plant response rating ([10]; 125 g ai/ha) | Pigweed, Palmer plant response rating ([12]; 62 g ai/ha) | Pigweed, Palmer plant response rating ([12]; 125 g ai/ha)
75: Plant response rating, Speedwell ([4]; 16 g ai/ha, scale of 0 to 100) | Poinsettia, Wild plant response rating ([6]; 125 g ai/ha) | Plant response rating, Pigweed, Palmer ([12]; 16 g ai/ha, scale of 0 to 100)
80: Plant response rating, Buckwheat, Wild ([1]; 16 g ai/ha, scale of 0 to 100) | Plant response rating, Nightshade ([7]; 31 g ai/ha, scale 0 to 100) | Plant response rating, Pigweed, Palmer ([12]; 31 g ai/ha, scale 0 to 100)

Source: patent US11053204B2, “Pyrimidinyloxy benzene derivatives as herbicides” (FMC Corporation, priority 2015, dated 2021)
